Source: PubChem BioAssay (NCI)
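Growth conditions: 96-well plates. Treatment: test compound, 48 hours, 5 concentrations. Analysis: linear interpolation between bracketing concentrations; unreached endpoints set to highest concentration. At the TGI there is no net growth.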

Tests used:
Assay in all cases: DTP human tumour cell line panel, 48 h
[1] = tested on: SK-MEL-2 melanoma
[2] = tested on: MALME-3M melanoma
[3] = tested on: MDA-N
[4] = tested on: LOX IMVI melanoma
[5] = tested on: SK-OV-3 ovarian
[6] = tested on: HOP-92 NSCLC
[7] = tested on: MOLT-4 leukemia
[8] = tested on: OVCAR-8 ovarian
[9] = tested on: SW-620 colon
[10] = tested on: MDA-MB-231 breast
[11] = tested on: UO-31 renal
[12] = tested on: KM12 colon
[13] = tested on: EKVX NSCLC
[14] = tested on: OVCAR-3 ovarian
[15] = tested on: SF-268 CNS
[16] = tested on: RXF 393 renal
[17] = tested on: OVCAR-4 ovarian
[18] = tested on: BT-549 breast
[19] = tested on: HOP-62 NSCLC
[20] = tested on: MCF7 breast
[21] = tested on: M14 melanoma
[22] = tested on: MDA-MB-435
[23] = tested on: COLO 205 colon
[24] = tested on: IGROV1 ovarian
[25] = tested on: NCI-H522 lung
[26] = tested on: HCT-116 colon
[27] = tested on: T-47D breast
[28] = tested on: SNB-75 CNS
[29] = tested on: 786-0 renal
[30] = tested on: SR leukemia
[31] = tested on: TK-10 renal
[32] = tested on: NCI-H23 lung
[33] = tested on: HCC-2998 colon
[34] = tested on: HT29 colon
[35] = tested on: SF-295 CNS
[36] = tested on: CCRF-CEM leukemia
[37] = tested on: PC-3 prostate
[38] = tested on: RPMI-8226 leukemia
[39] = tested on: SK-MEL-28 melanoma
[40] = tested on: A549 NSCLC
[41] = tested on: SN12C renal
[42] = tested on: HCT-15 colon
[43] = tested on: ACHN renal
[44] = tested on: U251 CNS
[45] = tested on: CAKI-1 renal
[46] = tested on: HS 578T breast
[47] = tested on: UACC-257 melanoma
[48] = tested on: K-562 leukemia
[49] = tested on: SF-539 CNS
[50] = tested on: SK-MEL-5 melanoma
[51] = tested on: OVCAR-5 ovarian
[52] = tested on: A498 renal
[53] = tested on: NCI-H460 lung
[54] = tested on: DU-145 prostate
[55] = tested on: NCI-H226 lung
[56] = tested on: HL-60(TB) leukemia
[57] = tested on: UACC-62 melanoma
[58] = tested on: SNB-19 CNS
[59] = tested on: NCI/ADR-RES ovarian

CSc1nc(NC(C)C)c2c(n1)Sc1nc3ccccc3n1C2O (stereo unspecified)
TGI [1]: 52 µM | TGI [2]: 49.6 µM | TGI [3]: 11.9 µM | TGI [4]: > 100 µM | TGI [5]: > 100 µM | TGI [6]: > 100 µM | TGI [7]: 14.1 µM | TGI [8]: > 100 µM | TGI [9]: 65.3 µM | TGI [10]: > 100 µM | TGI [11]: 27.8 µM | TGI [12]: > 100 µM | TGI [13]: > 100 µM | TGI [14]: 5.88 µM | TGI [15]: > 100 µM | TGI [16]: 30.4 µM | TGI [17]: > 100 µM | TGI [18]: > 100 µM | TGI [19]: > 100 µM | TGI [20]: > 100 µM | TGI [21]: > 100 µM | TGI [22]: 5.02 µM | TGI [23]: 14.3 µM | TGI [24]: > 100 µM | TGI [25]: 24.7 µM | TGI [26]: > 100 µM | TGI [27]: 22.4 µM | TGI [28]: 23.4 µM | TGI [29]: > 100 µM | TGI [30]: > 100 µM | TGI [31]: > 100 µM | TGI [32]: > 100 µM | TGI [33]: > 100 µM | TGI [34]: > 100 µM | TGI [35]: > 100 µM | TGI [36]: 4.95 µM | TGI [37]: > 100 µM | TGI [38]: 12.5 µM | TGI [39]: > 100 µM | TGI [40]: > 100 µM | TGI [41]: > 100 µM | TGI [42]: > 100 µM | TGI [43]: 81.8 µM | TGI [44]: > 100 µM | TGI [45]: > 100 µM | TGI [46]: 13.4 µM | TGI [47]: > 100 µM | TGI [48]: > 100 µM

O=C(Cc1ccccc1)NN1C(=O)/C(=C\c2ccc(O)cc2)SC1=Nc1ccccc1
TGI [49]: > 100 µM | TGI [1]: > 100 µM | TGI [50]: > 100 µM | TGI [51]: > 100 µM | TGI [3]: > 100 µM | TGI [5]: > 100 µM | TGI [6]: > 100 µM | TGI [52]: > 100 µM | TGI [7]: > 100 µM | TGI [53]: > 100 µM | TGI [8]: > 100 µM | TGI [9]: > 100 µM | TGI [10]: > 100 µM | TGI [11]: > 100 µM | TGI [12]: > 100 µM | TGI [13]: > 100 µM | TGI [14]: > 100 µM | TGI [54]: > 100 µM | TGI [15]: > 100 µM | TGI [16]: > 100 µM | TGI [17]: > 100 µM | TGI [18]: > 100 µM | TGI [19]: > 100 µM | TGI [20]: > 100 µM | TGI [21]: > 100 µM | TGI [55]: > 100 µM | TGI [22]: > 100 µM | TGI [23]: > 100 µM | TGI [24]: > 100 µM | TGI [26]: > 100 µM | TGI [27]: > 100 µM | TGI [28]: > 100 µM | TGI [29]: > 100 µM | TGI [31]: > 100 µM | TGI [32]: > 100 µM | TGI [33]: > 100 µM | TGI [34]: > 100 µM | TGI [35]: > 100 µM | TGI [36]: > 100 µM | TGI [38]: > 100 µM | TGI [56]: > 100 µM | TGI [57]: > 100 µM | TGI [39]: > 100 µM | TGI [40]: > 100 µM | TGI [41]: > 100 µM | TGI [42]: > 100 µM | TGI [43]: > 100 µM | TGI [44]: > 100 µM | TGI [58]: > 100 µM | TGI [46]: > 100 µM | TGI [59]: > 100 µM | TGI [47]: > 100 µM | TGI [48]: > 100 µM
